Results taken from US10071981B2, “Method of priming plants against abiotic stress factors” (Research Foundation of The City University of New York, priority 2014, dated 2018).

What was measured:
Assay type in all cases: in vivo
Medicago sativa plants [1] = assay: Nitric oxide content in leaves of drought-stressed plants; settings: 100 μM; vs drought-stressed samples; FIG. 14B
Protocol: Mature (42 d) Medicago sativa plants were used for the purposes of this study. These were grown in soil medium under controlled, optimal growth conditions and were then subjected to drought stress. Drought was imposed by withholding watering until drought symptoms (loss of turgour, wilting, chlorosis) were observed (6 d after stress imposition). Samples were then re-watered to observe recovery potential after 1 day (7 d). Both NOSH and NOSH-aspirin were applied at 100 μM concentration by foliar spraying at the start of stress imposition. The hybrid donors were diluted in 30% (v/v) methanol. Physiological parameters (stomatal conductance and chlorophyll fluorescence) were measured with a DT-Porometer AP4 (Delta-TDevices, Cambridge, UK) and an OptiSci OS-30p chlorophyll fluorometer (Opti-Sciences, Hudson, N.H., USA) respectively (Filippou et al., 2013). Chlorophyll fluorescence (Fv/Fm) of leaves represents the maximum photochemical efficiency of photosystem II (PSII). Cellular damage was evaluated by lipid peroxidation levels (TBARS content), nitric oxide (NO) content (nitrosative stress) and hydrogen peroxide (H2O2) content (oxidative stress) as previously described (Filippou et al., 2011; Tanou et al., 2012), while osmoprotective capacity was evaluated by proline content (ninhydrin assay) as previously described (Antoniou et al., 2013). […]

Medicago sativa plants [2] = assay: Macroscopic (phenotypic) observation of drought-stressed plants; settings: for phenotype (vitality, turgor, greening): 100 μM foliar spraying, 30% MetOH, 6 d after stress imposition, vs drought-stressed plants, FIG. 9; for recovery capacity (phenotype): day 7 (6 d drought + 1 d rewatering), vs drought-stressed alone, FIG. 10; for phenotype after second wave of drought stress: day 13, another 6 days without watering, FIG. 11
Protocol: where cPTIO represents a NO inhibitor, while HXL is a H2S inhibitor. In addition to the previous setup of sampling control and drought-stressed samples, plants were re-watered at 6 d after drought stress imposition and additional sampling was carried out 1 d after rewatering to examine recovery of plants, while a second wave of drought stress was imposed to see if primed plants develop a longer-term, ‘memory’ effect. Plant Material and Stress Conditions
(§1) Mature (42 d) Medicago sativa plants were used for the purposes of this study. These were grown in soil medium under controlled, optimal growth conditions and were then subjected to drought stress. Drought was imposed by withholding watering until drought symptoms (loss of turgour, wilting, chlorosis) were observed (6 d after stress imposition). Samples were then re-watered to observe recovery potential after 1 day (7 d). Both NOSH and NOSH-aspirin were applied at 100 μM concentration by foliar spraying at the start of stress imposition. The hybrid donors were diluted in 30% (v/v) methanol. Physiological parameters (stomatal conductance and chlorophyll fluorescence) were measured with a DT-Porometer AP4 (Delta-TDevices, Cambridge, UK) and an OptiSci OS-30p chlorophyll fluorometer (Opti-Sciences, Hudson, N.H., USA) respectively (Filippou et al., 2013). Chlorophyll fluorescence (Fv/Fm) of leaves represents the maximum photochemical efficiency of photosystem II (PSII). Cellular damage was evaluated by lipid peroxidation levels (TBARS content), nitric oxide (NO) content (nitrosative stress) and hydrogen peroxide (H2O2) content (oxidative stress) as previously described (Filippou et al., 2011; Tanou et al., 2012), while osmoprotective capacity was evaluated by proline content (ninhydrin assay) as previously described (Antoniou et al., 2013). Antioxidant enzyme activities (SOD and CAT) were measured as previously described (Filippou et al., 2014). Real-time RT-PCR gene expression analysis was carried out using a Biorad IQ5 thermocycler as previously described (Filippou et al., 2013). Relative quantification of gene expression and statistical analysis of all qRT-PCR data (pairwise fixed reallocation randomization test) were performed using the REST software according to Pfaffl et al. (2002). The actin 11 gene was used as a housekeeping reference gene. All analyses were carried out using three independent biological pools of samples as replicates (with a minimum of fifteen independent plants per pooled sample). The experimental setup is shown schematically in FIG. 8.

Medicago sativa plants [3] = assay: Hydrogen peroxide content in leaves of drought-stressed plants; settings: FIG. 14A
Protocol: as §1
Abiotic stress conditions are associated with increased levels of reactive oxygen (ROS) and reactive nitrogen (RNS) species content, which are toxic for the cells. During such conditions, the production of ROS and RNS exceeds the capacity of the antioxidative defense systems to remove them, causing nitro-oxidative stress.

Medicago sativa plants [4] = assay: Lipid peroxidation (leaf MDA/TBARS content) in drought-stressed plants; settings: FIG. 13
Protocol: as §1
An examination of cellular damage levels was performed by means of spectrophotometric determination of lipid peroxidation.

Medicago sativa plants [5] = assay: Physiological measurements (stomatal conductance, chlorophyll fluorescence) in drought-stressed plants; settings: 100 μM; vs drought-stressed samples; FIG. 12
Protocol: as §1

Medicago sativa plants [6] = assay: Real-time RT-PCR gene expression in leaves of drought-stressed plants; settings: FIG. 17; for relative gene expression of genes examined (NR, GST17, Cu/ZnSOD, FeSOD, APX, PIP): after rewatering, vs drought-stressed alone plants; for SOD isoforms (Cu/ZnSOD, FeSOD) relative gene expression: pretreated and stressed vs stressed alone plants
Protocol: as §1
Finally, qRT-PCR gene expression analysis was carried out (FIG. 17) for key defense-related genes, including major enzymatic antioxidants (GST17, Cu/ZnSOD, FeSOD, cAPX) linked with ROS scavenging, as well as genes involved in NO biosynthesis (NR). In addition, an aquaporin (PIP) was also examined which is linked with response to water deficit and transport.

[7] = system: Arabidopsis thaliana Col-0 plants; assay: Growth promotion (leaf area, ImageJ leaf series) on MS agar plates; settings: 23 DAS; for true leaf 4 and 5 area: vs control samples
Protocol: An in vitro experiment was carried out in order to evaluate the potential of NOSH and NOSH-A for growth promotion in terms of leaf area increase in Arabidopsis thaliana plants. Arabidopsis thaliana Col-0 plants were used for the purposes of this study. Seeds were placed on MS agar plates containing 10 μM or 100 μM NOSH or NOSH-A (diluted in 20% (v/v) acetone) which were then incubated in the dark at 4° C. for 4 days for stratification purposes. Appropriate control plates were also prepared. The plates were then placed in a growth chamber and leaves were sampled at 23 DAS (days after sowing). Complete leaf series were examined from seven individual plants per treatment (n=7). A complete leaf series consists of all leaves from each individual plant, starting from the cotyledons and including all true leaves, harvested and examined in order of presence on the plant (from older to younger true leaf). These leaves are excised and placed on agar plates where photographs are taken and leaf areas are calculated using ImageJ software (http://imagej.nih.gov/ij/).

[8] = 100 μM, 6 d drought, vs drought-stressed samples
[9] = rewatering at 7 d vs respective pretreated, drought-stressed samples at 6 d

SMILES | nitric oxide (NO) content (Medicago sativa plants [1]) | phenotype (vitality, turgor, greening) (Medicago sativa plants [2]) | recovery capacity (phenotype) (Medicago sativa plants [2]) | phenotype after second wave of drought stress (Medicago sativa plants [2]) | H2O2 content (Medicago sativa plants [3]; [8]) | H2O2 content (Medicago sativa plants [3]; [9]) | MDA content (lipid peroxidation) (Medicago sativa plants [4]; [8]) | MDA content (lipid peroxidation) (Medicago sativa plants [4]; 7 d (after rewatering)) | chlorophyll fluorescence (Fv/Fm) (Medicago sativa plants [5]) | stomatal conductance (Medicago sativa plants [5]) | relative gene expression of genes examined (NR, GST17, Cu/ZnSOD, FeSOD, APX, PIP) (Medicago sativa plants [6]) | SOD isoforms (Cu/ZnSOD, FeSOD) relative gene expression (Medicago sativa plants [6]) | growth induction (macroscopic analysis) ([7]; 10 μM in MS agar) | overall rosette area (total leaf area per plant), increase compared with control plants ([7]; 10 μM, n=7, FIG. 22) [%] | true leaf 4 and 5 area ([7]; 10 μM, n=7, FIG. 22) | growth induction (macroscopic analysis) ([7]; 100 μM in MS agar) | greening of leaves ([7]; MS agar plates, FIGS. 18-21)
O=C(CCCO[N+](=O)[O-])Oc1ccc(-c2cc(=S)ss2)cc1 [NOSH] | significantly reversed | significantly improved vitality, turgor and greening | notably improved recovery capacity | maintained growth and vitality | significantly reversed | ameliorated even further | statistically significant protection | maintained low MDA content levels close to those of control, watered samples | significantly higher | significantly higher | general suppression of most genes examined | significant transcriptional regulation (induction) | visible growth induction | 37 | significantly higher | contrarily | increased greening
O=C(CCCO[N+](=O)[O-])Oc1ccccc1C(=O)Oc1ccc(-c2cc(=S)ss2)cc1 [NOSH-A] | significantly reversed | significantly improved vitality, turgor and greening | notably improved recovery capacity | maintained growth and vitality | significantly reversed | ameliorated even further | statistically significant protection | maintained low MDA content levels close to those of control, watered samples | significantly higher | significantly higher | general suppression of most genes examined | significant transcriptional regulation (induction) | visible growth induction | – | no significant increase | contrarily | –
